According to US8227613B2, “Heteroaryl carboxamide derivatives” (Hoffmann-La Roche Inc., priority 2008, dated 2012):
pIC50: −log10 of the molar value.

Molecular target: T1, human chemokine receptor 2 isoform B (CCR2B) (Homo sapiens, UniProt P41597)
T1 construct: host or cells: CHO-K1 (CHOK1-CCR2B-A5)
T1 sequence (P41597 1-360 isoform P41597-2): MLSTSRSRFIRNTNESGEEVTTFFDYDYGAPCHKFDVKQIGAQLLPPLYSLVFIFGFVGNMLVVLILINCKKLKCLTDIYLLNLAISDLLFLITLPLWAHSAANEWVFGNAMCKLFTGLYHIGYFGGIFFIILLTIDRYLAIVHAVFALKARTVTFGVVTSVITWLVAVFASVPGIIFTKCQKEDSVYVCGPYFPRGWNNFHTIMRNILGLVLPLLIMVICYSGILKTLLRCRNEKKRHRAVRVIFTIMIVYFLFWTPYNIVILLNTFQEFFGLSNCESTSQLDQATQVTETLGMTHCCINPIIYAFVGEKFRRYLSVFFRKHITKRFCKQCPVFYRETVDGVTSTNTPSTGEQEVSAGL
Test: Calcium mobilization assay (FLIPR, MCP-1 stimulated CHOK1-CCR2B-A5 cells)
Format: cell-based
Settings: 20 nM MCP-1, antagonist activity, read-out: IC50 (inhibitor concentration required for 50% inhibition of specific calcium increases)
Method: Calcium Mobilization Assay
CHOK1-CCR2B-A5 cells (from Euroscreen) stably overexpressing the human chemokine receptor 2 isoform B were cultured in Nutrient Hams F12 medium supplemented with 5% FBS, 100 U/ml penicillin, 100 μg/ml streptomycin, 400 μg/ml G418 and 5 μg/ml puromycin.
For the assay cells were grown overnight in 384-well black clear flat bottom polystyrene plates (Costar) at 37° C. at 5% CO2. After washing with DMEM, 20 mM Hepes, 2.5 mM probenecid, 0.1% BSA (DMEM assay buffer) cells were loaded with 4 μM Fluo-4 in the same DMEM assay buffer for 2 hours at 30° C. Excess dye was removed and cells were washed with DMEM assay buffer. 384-well compound plates were prepared with DMEM assay buffer/0.5% DMSO with or without various concentrations of test compounds. Usually compounds were tested for agonist and antagonist activity.
Test compounds were added to the assay plate and agonist activity was monitored as fluorescence for 80 seconds with a FLIPR (488 nm excitation; 510-570 nm emission; Molecular Devices). After 20-30 min. of incubation at 30° C., 20 nM MCP-1 (R&D; Roche) was added and fluorescence was monitored again for 80 seconds. Increases in intracellular calcium are reported as maximum fluorescence after agonist exposure minus basal fluorescence before exposure. Antagonist activity is indicated as inhibitor concentration required for 50% inhibition of specific calcium increases.

First: C#Cc1nc(C(=O)N2CCC(N3CCCC3)CC2)c(C)cc1-c1cccc(C(F)(F)F)c1 [Example 24, [6-Ethynyl-3-methyl-5-(3-trifluoromethyl-phenyl)-pyridin-2-yl]-(4-pyrrolidin-1-yl-piperidin-1-yl)-methanone]
Second: Cc1cc(-c2cccc(C(F)(F)F)c2)c(S)nc1C(=O)N1CCC(N2CCCC2)CC1 [Example 64, [6-Mercapto-3-methyl-5-(3-trifluoromethyl-phenyl)-pyridin-2-yl]-(4-pyrrolidin-1-yl-piperidin-1-yl)-methanone; [3-Methyl-6-thioxo-5-(3-trifluoromethyl-phenyl)-1,6-dihydro-pyridin-2-yl]-(4-pyrrolidin-1-yl-piperidin-1-yl)-methanone (tautomers)]
The pIC50 of the first is 1.80 log units higher: 8.32 for the first, 6.52 for the second. The first is the more potent here.

Compared with `Cc1cc(-c2ccc(Cl)c(Cl)c2)cnc1C(=O)N1CCC(N2CCCC2)CC1` [Example 28, [5-(3,4-Dichloro-phenyl)-3-methyl-pyridin-2-yl]-(4-pyrrolidin-1-yl-piperidin-1-yl)-methanone], `Cc1cc(-c2cccc(C(F)(F)F)c2)cnc1C(=O)N1CCC(N2CCCC2)CC1` [Example 1, [3-Methyl-5-(3-trifluoromethyl-phenyl)-pyridin-2-yl]-(4-pyrrolidin-1-yl-piperidin-1-yl)-methanone] is 1.14 log units higher in pIC50: 6.60 for the first, 7.74 for the second. The second is the more potent here.

First: Cc1cc(-c2cccc(C(F)(F)F)c2)cnc1C(=O)N1CCC(N2CCC[C@H]2CO)CC1 [Example 5, [4-((S)-2-Hydroxymethyl-pyrrolidin-1-yl)-piperidin-1-yl]-[3-methyl-5-(3-trifluoromethyl-phenyl)-pyridin-2-yl]-methanone]
Second: O=C(c1ncc(-c2cccc(C(F)(F)F)c2)cc1Cl)N1CCC(N2CCCC2)CC1 [Example 14, [3-Chloro-5-(3-trifluoromethyl-phenyl)-pyridin-2-yl]-(4-pyrrolidin-1-yl-piperidin-1-yl)-methanone]
The pIC50 of the first is 0.24 log units lower: 7.68 for the first, 7.92 for the second.

First: Cc1cc(-c2cc(C(F)(F)F)ccc2F)cnc1C(=O)N1CCC(N2CCCC2)CC1 [Example 31, [5-(2-Fluoro-5-trifluoromethyl-phenyl)-3-methyl-pyridin-2-yl]-(4-pyrrolidin-1-yl-piperidin-1-yl)-methanone]
Second: Cc1cc(-c2cccc(C(F)(F)F)c2)c(N)nc1C(=O)N1CCC(N2CCCC2)CC1 [Example 7, [6-Amino-3-methyl-5-(3-trifluoromethyl-phenyl)-pyridin-2-yl]-(4-pyrrolidin-1-yl-piperidin-1-yl)-methanone]
The pIC50 of the first is 0.20 log units lower: 7.60 for the first, 7.80 for the second.

`Cc1cc(-c2cccc(C(F)(F)F)c2)c(-c2cn[nH]c2)nc1C(=O)N1CCC(N2CCCC2)CC1` [Example 48, [3-Methyl-6-(1H-pyrazol-4-yl)-5-(3-trifluoromethyl-phenyl)-pyridin-2-yl]-(4-pyrrolidin-1-yl-piperidin-1-yl)-methanone] and `Cc1cc(-c2cccc(C(F)(F)F)c2)c(-c2cc[nH]n2)nc1C(=O)N1CCC(N2CCCC2)CC1` [Example 49, [3-Methyl-6-(1H-pyrazol-3-yl)-5-(3-trifluoromethyl-phenyl)-pyridin-2-yl]-(4-pyrrolidin-1-yl-piperidin-1-yl)-methanone] are within 0.2 log units of each other in pIC50: 7.92 for the first, 8.00 for the second.

First: Cc1cc(-c2cccc(C(F)(F)F)c2)c(-c2cnccn2)nc1C(=O)N1CCC(N2CCCC2)CC1 [Example 51, [3-Methyl-6-pyrazin-2-yl-5-(3-trifluoromethyl-phenyl)-pyridin-2-yl]-(4-pyrrolidin-1-yl-piperidin-1-yl)-methanone]
Second: Cc1cc(-c2cccc(C(F)(F)F)c2)c(-c2cnn[nH]2)nc1C(=O)N1CCC(N2CCCC2)CC1 [Example 32, [3-Methyl-6-(1H-[1,2,3]triazol-4-yl)-5-(3-trifluoromethyl-phenyl)-pyridin-2-yl]-(4-pyrrolidin-1-yl-piperidin-1-yl)-methanone]
The pIC50 of the first is 0.62 log units higher: 8.26 for the first, 7.64 for the second.

Compared with `Cc1cc(-c2cccc(C(F)(F)F)c2)n(C)c(=O)c1C(=O)N1CCC(N2CCCC2)CC1` [Example 13, 1,4-Dimethyl-3-(4-pyrrolidin-1-yl-piperidine-1-carbonyl)-6-(3-trifluoromethyl-phenyl)-1H-pyridin-2-one], `Cc1cc(-c2cccc(C(F)(F)F)c2)c(CO)nc1C(=O)N1CCC(N2CCCC2)CC1` [Example 46, [6-Hydroxymethyl-3-methyl-5-(3-trifluoromethyl-phenyl)-pyridin-2-yl]-(4-pyrrolidin-1-yl-piperidin-1-yl)-methanone] is 0.68 log units higher in pIC50: 7.24 for the first, 7.92 for the second.

`Cc1cc(-c2cccc(C(F)(F)F)c2)c(C(=O)N2CCN(C(=O)OC(C)(C)C)CC2)nc1C(=O)N1CCC(N2CCCC2)CC1` [Example 59, 4-[5-Methyl-6-(4-pyrrolidin-1-yl-piperidine-1-carbonyl)-3-(3-trifluoromethyl-phenyl)-pyridine-2-carbonyl]-piperazine-1-carboxylic acid tert-butyl ester] and `Cc1cc(-c2cccc(C(F)(F)F)c2)c(C(=O)N2CCNCC2)nc1C(=O)N1CCC(N2CCCC2)CC1` [Example 61, [5-Methyl-6-(4-pyrrolidin-1-yl-piperidine-1-carbonyl)-3-(3-trifluoromethyl-phenyl)-pyridin-2-yl]-piperazin-1-yl-methanone] are within 0.2 log units of each other in pIC50: 6.31 for the first, 6.49 for the second.

First: Cc1cc(-c2cccc(C(F)(F)F)c2)c(OCCO)nc1C(=O)N1CCC(N2CCCC2)CC1 [Example 66, [6-(2-Hydroxy-ethoxy)-3-methyl-5-(3-trifluoromethyl-phenyl)-pyridin-2-yl]-(4-pyrrolidin-1-yl-piperidin-1-yl)-methanone]
Second: Cc1cc(-c2cccc(C(F)(F)F)c2)c(NCCO)nc1C(=O)N1CCC(N2CCCC2)CC1 [Example 27, [6-(2-Hydroxy-ethylamino)-3-methyl-5-(3-trifluoromethyl-phenyl)-pyridin-2-yl]-(4-pyrrolidin-1-yl-piperidin-1-yl)-methanone]
The pIC50 of the first is 0.69 log units lower: 6.70 for the first, 7.39 for the second. The second is the more potent here.

Going from `Cc1cc(-c2cccc(C(F)(F)F)c2)c(C(=O)NC2CCNCC2)nc1C(=O)N1CCC(N2CCCC2)CC1` [Example 60, 5-Methyl-6-(4-pyrrolidin-1-yl-piperidine-1-carbonyl)-3-(3-trifluoromethyl-phenyl)-pyridine-2-carboxylic acid piperidin-4-ylamide] to `Cc1cc(-c2cccc(C(F)(F)F)c2)c(NCCN)nc1C(=O)N1CCC(N2CCCC2)CC1` [Example 26, [6-(2-Amino-ethylamino)-3-methyl-5-(3-trifluoromethyl-phenyl)-pyridin-2-yl]-(4-pyrrolidin-1-yl-piperidin-1-yl)-methanone], the pIC50 rises from 6.54 to 7.17 (0.63 log units). The second is the more potent here.

Compared with `O=C(c1nc(O)c(-c2cccc(C(F)(F)F)c2)cc1Cl)N1CCC(N2CCCC2)CC1` [Example 23, [3-Chloro-6-hydroxy-5-(3-trifluoromethyl-phenyl)-pyridin-2-yl]-(4-pyrrolidin-1-yl-piperidin-1-yl)-methanone; 5-Chloro-6-(4-pyrrolidin-1-yl-piperidine-1-carbonyl)-3-(3-trifluoromethyl-phenyl)-1H-pyridin-2-one (tautomers)], `COc1nc(C(=O)N2CCC(N3CCCC3)CC2)c(Cl)cc1-c1cccc(C(F)(F)F)c1` [Example 22, [3-Chloro-6-methoxy-5-(3-trifluoromethyl-phenyl)-pyridin-2-yl]-(4-pyrrolidin-1-yl-piperidin-1-yl)-methanone] is 0.35 log units higher in pIC50: 7.39 for the first, 7.74 for the second.

First: Cc1cc(-c2cccc(C(F)(F)F)c2)c(-c2ccc(N)nc2)nc1C(=O)N1CCC(N2CCCC2)CC1 [Example 40, [6′-Amino-5-methyl-3-(3-trifluoromethyl-phenyl)-[2,3′]bipyridinyl-6-yl]-(4-pyrrolidin-1-yl-piperidin-1-yl)-methanone]
Second: COc1ncc(-c2nc(C(=O)N3CCC(N4CCCC4)CC3)c(C)cc2-c2cccc(C(F)(F)F)c2)cn1 [Example 44, [6-(2-Methoxy-pyrimidin-5-yl)-3-methyl-5-(3-trifluoromethyl-phenyl)-pyridin-2-yl]-(4-pyrrolidin-1-yl-piperidin-1-yl)-methanone]
The pIC50 of the first is 0.49 log units higher: 8.41 for the first, 7.92 for the second.

Compared with `Cc1cc(-c2cccc(C(F)(F)F)c2)c(-n2cncn2)nc1C(=O)N1CCC(N2CCCC2)CC1` [Example 25, [3-Methyl-6-[1,2,4]triazol-1-yl-5-(3-trifluoromethyl-phenyl)-pyridin-2-yl]-(4-pyrrolidin-1-yl-piperidin-1-yl)-methanone], `Cc1cc(-c2cccc(C(F)(F)F)c2)c(Oc2cccnc2)nc1C(=O)N1CCC(N2CCCC2)CC1` [Example 62, [3-Methyl-6-(pyridin-3-yloxy)-5-(3-trifluoromethyl-phenyl)-pyridin-2-yl]-(4-pyrrolidin-1-yl-piperidin-1-yl)-methanone] is 1.48 log units lower in pIC50: 8.64 for the first, 7.16 for the second. The first is the more potent here.

`COc1ccc(-c2cnc(C(=O)N3CCC(N4CCCC4)CC3)c(C)c2)cc1C(F)(F)F` [Example 35, [5-(4-Methoxy-3-trifluoromethyl-phenyl)-3-methyl-pyridin-2-yl]-(4-pyrrolidin-1-yl-piperidin-1-yl)-methanone] showed a pIC50 of 6.25.
